Each compound was assayed against T1, Human GO (Homo sapiens, UniProt Q9UJM8) (assay: GO enzymatic assay (coupled fluorescence/HRP assay, glycolate substrate)). Conditions: Table 2; read-out: Range (range of IC50 values calculated from the enzymatic assays).
T1 construct: purchased Novus Biologicals NBP1-72412
T1 sequence (Q9UJM8 1-370): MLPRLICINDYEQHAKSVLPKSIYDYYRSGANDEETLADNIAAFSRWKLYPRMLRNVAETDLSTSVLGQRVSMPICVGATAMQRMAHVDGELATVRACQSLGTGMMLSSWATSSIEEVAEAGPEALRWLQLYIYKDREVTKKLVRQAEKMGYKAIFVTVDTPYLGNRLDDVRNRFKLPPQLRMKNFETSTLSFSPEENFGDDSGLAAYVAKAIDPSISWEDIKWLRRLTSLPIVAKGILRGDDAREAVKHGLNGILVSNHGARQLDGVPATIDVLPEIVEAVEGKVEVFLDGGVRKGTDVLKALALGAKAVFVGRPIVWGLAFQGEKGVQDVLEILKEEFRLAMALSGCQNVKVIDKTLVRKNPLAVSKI
Assay type: biochemical
Outline: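 Human GO incubated with glycolate substrate in 50 mM potassium phosphate, pH 7, with varying inhibitor concentrations. Activity read by coupled HRP fluorescence. IC50 taken from variable-slope sigmoidal dose-response fits of percent inhibition relative to DMSO control.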

SMILES | IC50 [nM]
O=C(O)c1[nH]nnc1OC1CCC2(CCCC2)CC1 [Compound 284, 4-(spiro[4.5]decan-8-yloxy)-1H-1,2,3-triazole-5-carboxylic acid] | < 100
O=C(O)c1[nH]nnc1OC1CCN(c2cc(Cl)cc(Cl)c2)CC1 [Compound 285, 4-((1-(3,5-dichlorophenyl)piperidin-4-yl)oxy)-1H-1,2,3-triazole-5-carboxylic acid 2,2,2-trifluoroacetate] | < 100
O=C(O)c1[nH]nnc1OC1CCN(c2ccc(Cl)c(Cl)c2)CC1 [Compound 286, 4-((1-(3,4-dichlorophenyl)piperidin-4-yl)oxy)-1H-1,2,3-triazole-5-carboxylic acid 2,2,2-trifluoroacetate] | < 100
O=C(O)c1[nH]nnc1OC1CCN(c2ccc(C(F)(F)F)cc2)CC1 [Compound 287, 4-((1-(4-(trifluoromethyl)phenyl)piperidin-4-yl)oxy)-1H-1,2,3-triazole-5-carboxylic acid 2,2,2-trifluoroacetate] | < 100
O=C(O)c1[nH]nnc1Oc1cc(OCC2CC2)cc(C(F)(F)F)c1 [Compound 288, 4-(3-(cyclopropylmethoxy)-5-(trifluoromethyl)phenoxy)-1H-1,2,3-triazole-5-carboxylic acid] | 100 to 1000
O=C(O)c1[nH]nnc1Oc1cc(Cl)cc(OCC2CC2)c1 [Compound 289, 4-(3-chloro-5-(cyclopropylmethoxy)phenoxy)-1H-1,2,3-triazole-5-carboxylic acid 2,2,2-trifluoroacetate] | < 100
O=C(O)c1[nH]nnc1Oc1cccc(OCC2CCCC2)c1 [Compound 290, 4-(3-(cyclopentylmethoxy)phenoxy)-1H-1,2,3-triazole-5-carboxylic acid 2,2,2-trifluoroacetate] | < 100
O=C(O)c1[nH]nnc1OC1CCN(c2cc(Cl)ccc2Cl)CC1 [Compound 291, 4-((1-(2,5-dichlorophenyl)piperidin-4-yl)oxy)-1H-1,2,3-triazole-5-carboxylic acid 2,2,2-trifluoroacetate] | < 100
O=C(O)c1[nH]nnc1Oc1ccc(Cl)c(OCC2CC2)c1 [Compound 292, 4-(4-chloro-3-(cyclopropylmethoxy)phenoxy)-1H-1,2,3-triazole-5-carboxylic acid] | < 100
O=C(O)c1[nH]nnc1Oc1cc(OCC2CC2)ccc1Cl [Compound 293, 4-(2-chloro-5-(cyclopropylmethoxy)phenoxy)-1H-1,2,3-triazole-5-carboxylic acid] | < 100
O=C(O)c1[nH]nnc1Oc1ccc(C(F)(F)F)c(OCC2CC2)c1 [Compound 295, 4-(3-(cyclopropylmethoxy)-4-(trifluoromethyl)phenoxy)-1H-1,2,3-triazole-5-carboxylic acid] | < 100
O=C(O)c1[nH]nnc1Oc1ccc(-c2ccc(N3CCC(F)(F)CC3)cc2)cc1 [Compound 297, 4-((4′-(4,4-difluoropiperidin-1-yl)-[1,1′-biphenyl]-4-yl)oxy)-1H-1,2,3-triazole-5-carboxylic acid 2,2,2-trifluoroacetate] | < 100
O=C(O)c1[nH]nnc1OCC1CCC(c2ccc(OC(F)(F)F)cc2)CC1 (centres unmarked) [Compound 298, 4-((4-(4-(trifluoromethoxy)phenyl)cyclohexyl)methoxy)-1H-1,2,3-triazole-5-carboxylic acid] | < 100
O=C(O)c1[nH]nnc1COc1ccc(-c2cc(Cl)cc(Cl)c2)cc1 [Compound 299, 4-(((3′,5′-dichloro-[1,1′-biphenyl]-4-yl)oxy)methyl)-1H-1,2,3-triazole-5-carboxylic acid] | < 100
O=C(O)c1[nH]nnc1COc1ccc(-c2ccc(OC(F)(F)F)c(Cl)c2)cc1 [Compound 300, 4-(((3′-chloro-4′-(trifluoromethoxy)-[1,1′-biphenyl]-4-yl)oxy)methyl)-1H-1,2,3-triazole-5-carboxylic acid] | < 100
O=C(O)c1[nH]nnc1Oc1ccc(N2CCC(F)(F)CC2)cc1 [Compound 301, 4-(4-(4,4-difluoropiperidin-1-yl)phenoxy)-1H-1,2,3-triazole-5-carboxylic acid 2,2,2-trifluoroacetate] | 100 to 1000
O=C(OCOC(=O)C1CCCCC1)c1[nH]nnc1O[C@H]1CC[C@H](c2ccc(OC(F)(F)F)cc2)CC1 [Compound 303, ((cyclohexanecarbonyl)oxy)methyl 4-(((trans)-4-(4-(trifluoromethoxy)phenyl)cyclohexyl)oxy)-1H-1,2,3-triazole-5-carboxylate] | > 10000

Results, then the compound that gave them:

IC50 [nM] | SMILES
< 100 | O=C(O)c1[nH]nnc1O[C@H]1CC[C@@H](c2cc(Cl)cc(Cl)c2)CC1 [Compound 304, 4-(((1s,4s)-4-(3,5-dichlorophenyl)cyclohexyl)oxy)-1H-1,2,3-triazole-5-carboxylic acid]
> 10000 | O=C(OCOC(=O)c1[nH]nnc1O[C@H]1CC[C@H](c2ccc(OC(F)(F)F)cc2)CC1)c1ccccc1 [Compound 305, (benzoyloxy)methyl 4-(((trans)-4-(4-(trifluoromethoxy)phenyl)cyclohexyl)oxy)-1H-1,2,3-triazole-5-carboxylate]
100 to 1000 | O=C(O)c1[nH]nnc1Oc1ccc(C2CCC(N3CCCCC3)CC2)cc1 (centres unmarked) [Compound 306, 4-(4-(4-(piperidin-1-yl)cyclohexyl)phenoxy)-1H-1,2,3-triazole-5-carboxylic acid 2,2,2-trifluoroacetate]
1000 to 10000 | CC(C)C(=O)OCOC(=O)c1[nH]nnc1O[C@H]1CC[C@H](c2ccc(OC(F)(F)F)cc2)CC1 [Compound 307, (isobutyryloxy)methyl 4-(((trans)-4-(4-(trifluoromethoxy)phenyl)cyclohexyl)oxy)-1H-1,2,3-triazole-5-carboxylate]
< 100 | O=C(O)c1[nH]nnc1O[C@H]1CC[C@@H](c2ccc(Cl)c(Cl)c2)CC1 [Compound 308-1, 4-(((cis)-4-(3,4-dichlorophenyl)cyclohexyl)oxy)-1H-1,2,3-triazole-5-carboxylic acid]
< 100 | O=C(O)c1[nH]nnc1O[C@H]1CC[C@H](c2ccc(Cl)c(Cl)c2)CC1 [Compound 308-2, 4-(((trans)-4-(3,4-dichlorophenyl)cyclohexyl)oxy)-1H-1,2,3-triazole-5-carboxylic acid]
< 100 | O=C(O)c1[nH]nnc1Oc1ccc(Cl)c(OCC2CCCCC2)c1 [Compound 309, 4-(4-chloro-3-(cyclohexylmethoxy)phenoxy)-1H-1,2,3-triazole-5-carboxylic acid]
< 100 | O=C(O)c1[nH]nnc1O[C@H]1CC[C@@H](c2ccc(C(F)(F)F)cc2)CC1 [Compound 310, 4-(((cis)-4-(4-(trifluoromethyl)phenyl)cyclohexyl)oxy)-1H-1,2,3-triazole-5-carboxylic acid]
< 100 | O=C(O)c1[nH]nnc1SC1CCC2(CCCC2)CC1 [Compound 311, 4-(spiro[4.5]decan-8-ylthio)-1H-1,2,3-triazole-5-carboxylic acid 2,2,2-trifluoroacetate]
< 100 | O=C(O)c1[nH]nnc1CSc1ccc(-c2ccc(OC(F)(F)F)cc2)cc1 [Compound 312, 4-(((4′-(trifluoromethoxy)-[1,1′-biphenyl]-4-yl)thio)methyl)-1H-1,2,3-triazole-5-carboxylic acid 2,2,2-trifluoroacetate]
1000 to 10000 | CCC(=O)OCOC(=O)c1[nH]nnc1Sc1ccc(-c2ccc(N3CCCCC3)cc2)cc1 [Compound 313, (propionyloxy)methyl 4-((4′-(piperidin-1-yl)-[1,1′-biphenyl]-4-yl)thio)-1H-1,2,3-triazole-5-carboxylate 2,2,2-trifluoroacetate]
< 100 | O=C(O)c1[nH]nnc1SC1CCC(c2ccc(OC(F)(F)F)cc2)C1 (centres unmarked) [Compound 314, 4-((3-(4-(trifluoromethoxy)phenyl)cyclopentyl)thio)-1H-1,2,3-triazole-5-carboxylic acid]
< 100 | O=C(O)c1[nH]nnc1SC1CCC2(CCCCC2)CC1 [Compound 315, 4-(spiro[5.5]undecan-3-ylthio)-1H-1,2,3-triazole-5-carboxylic acid 2,2,2-trifluoroacetate]
< 100 | O=C(O)c1[nH]nnc1SCc1ccc(N2CCCCC2)c2ccccc12 [Compound 316, 4-(((4-(piperidin-1-yl)naphthalen-1-yl)methyl)thio)-1H-1,2,3-triazole-5-carboxylic acid 2,2,2-trifluoroacetate]
> 10000 | O=C(OCOC(=O)C1CCCCC1)c1[nH]nnc1Sc1ccc(-c2ccc(N3CCCCC3)cc2)cc1 [Compound 317, ((cyclohexanecarbonyl)oxy)methyl 4-((4′-(piperidin-1-yl)-[1,1′-biphenyl]-4-yl)thio)-1H-1,2,3-triazole-5-carboxylate 2,2,2-trifluoroacetate]
< 100 | O=C(O)c1[nH]nnc1Sc1ccc(Cl)c(OC(F)(F)F)c1 [Compound 318, 4-((4-chloro-3-(trifluoromethoxy)phenyl)thio)-1H-1,2,3-triazole-5-carboxylic acid]

Same assay, conditions: Table 3; read-out: Range (range of IC50 values calculated from the enzymatic assays)

IC50 [nM] | SMILES
< 100 | O=C(O)c1[nH]nnc1OC(Cc1ccc(Cl)cc1)Cc1ccc(Cl)cc1 [Compound 294, 4-((1,3-bis(4-chlorophenyl)propan-2-yl)oxy)-1H-1,2,3-triazole-5-carboxylic acid]
> 10000 | O=C(O)c1[nH]nnc1OC(CCc1ccccc1)c1ccccc1 (centres unmarked) [Compound 296, 4-(1,3-diphenylpropoxy)-1H-1,2,3-triazole-5-carboxylic acid]
